The values that follow come from patent US20020161013A1, “Method of local anesthesia and analgesia” (priority 2001, published 2002).

Structures are written as SMILES. Where a name gives a salt, the structure may show the parent alone. Read-outs that look alike come from different tables or passages of the source.

For series [1], the system named is rabbit eyes. Set-up: species or system New Zealand white rabbits. The following applies: in vivo.
Series [2] relates to rabbits. Set-up: species or system New Zealand white rabbits. The conditions noted are these: rabbit, in vivo.
Series [3] deals with rabbits. Set-up: species or system New Zealand white rabbits. The conditions noted are these: rabbit, in vivo. The source holds these as a separate data set.
The conditions of series [4]: cited from earlier work.
The subject of series [5] is rabbit eyes. The conditions noted are these: in vivo.

In the case of `NC1=N[C@H](O)[C@H]2[C@H]3O[C@]4(O)O[C@@H]([C@@H](O)[C@@]2(N1)[C@@H]4O)[C@]3(O)CO` [TTX, tetrodotoxin], in the series on rabbit eyes [1], the “local anesthesia by retrobulbar injection compared with lidocaine” value was “much more potent”, the local anesthesia effect result is “weak effect” and the “local anesthesia in the treated eyes” value is listed as “showed local anesthesia in the treated eyes to various extents”. Also, in the series on rabbits [2], the general examination findings entry was “No changes of food-taking pattern, movement, respiration or alertness”; the toxic signs observed result is “Signs of convulsion, rigidity and death”. For the same molecule, in the series with rabbits [3], the “abnormalities in other animals of the group” value is “No significant abnormalities”; the “adverse signs in the TTX-treated eye” value is “conjunctival congestion, hydrops (++) and lacrimation”; the local anesthesia result was “local anesthesia to some extent”; the toxic signs observed entry is “Signs of convulsion, rigidity and death”.
Regarding `CCCCN1CCCCC1C(=O)Nc1c(C)cccc1C` (stereo not shown) [bupivacaine], in series [4] (bupivacaine, ophthalmic applications), the “residual diplopia next morning” value is “up to 70 % of patients”. Further, the duration of action in series [4] (bupivacaine, peripheral nerve block) is at most 24 h.
In the series on rabbit eyes [1], `CCN(CC)CC(=O)Nc1c(C)cccc1C` [lidocaine, lidocaine hydrochloride, reference compound] had a duration of action of 0.34 h and an onset of 1.94 min. Besides, the “magnitude of ERG b wave versus controls” value with rabbit eyes [5] was “Neither were differences found”. Besides, in series [4] (in vivo), the duration of action entry is listed as “over 20 minutes” and the onset entry is reported as “about 2 minutes”.
